Source: patent US12139520B2 (priority 2020, dated 2024)
Numbered stars: 1 amine (or outer) side, 2 acyl side, 3 side chain; on linkers, the order of the positions; unused ones are H or OH. Bridge positions count the residues as written; N and C are the ends. Square brackets hold non-standard residues; d marks the D form. Peptide text beside a SMILES is read from it. * marks the point of attachment. C20 diacid = O=C(O)CCCCCCCCCCCCCCCCCCC(=O)*; γGlu = O=C(O)[C@H](CCC(=O)[*:2])N[*:1]; Hyp = O=C(O)[C@@H]1C[C@@H](O)CN1

target: T1, hAMY3 receptor (Homo sapiens, UniProt O60896+P30988); assay: cAMP assay for in vitro receptor activation, hAMY3-R; assay type: cell-based; details: cAMP assay, hAMY3 receptor; read-out: hAMY3R EC50
T1 sequence (P30988 25-474): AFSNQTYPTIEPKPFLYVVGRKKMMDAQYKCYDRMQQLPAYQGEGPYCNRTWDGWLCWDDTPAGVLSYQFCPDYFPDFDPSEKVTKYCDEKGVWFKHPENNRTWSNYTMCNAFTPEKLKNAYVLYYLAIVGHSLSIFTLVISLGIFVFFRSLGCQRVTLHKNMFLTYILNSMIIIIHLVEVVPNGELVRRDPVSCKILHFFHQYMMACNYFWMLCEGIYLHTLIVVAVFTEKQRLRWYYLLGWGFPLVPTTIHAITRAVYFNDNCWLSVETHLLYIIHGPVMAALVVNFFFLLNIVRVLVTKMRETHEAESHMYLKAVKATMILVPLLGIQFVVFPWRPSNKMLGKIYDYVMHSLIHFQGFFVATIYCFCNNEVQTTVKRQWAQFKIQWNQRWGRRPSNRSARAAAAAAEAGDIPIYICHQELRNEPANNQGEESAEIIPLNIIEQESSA
T1 sequence (O60896 24-148 partner): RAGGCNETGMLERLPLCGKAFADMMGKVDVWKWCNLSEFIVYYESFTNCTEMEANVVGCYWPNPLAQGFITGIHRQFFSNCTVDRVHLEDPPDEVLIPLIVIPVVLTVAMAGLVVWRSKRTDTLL
Description: General Protocols for cAMP Assays for Measuring In Vitro Receptor Activation
Cells stably overexpressing the hAMY3 receptor were obtained from Ogeda (now Astellas Pharma), sub-cloned and a monoclonal cell-line with an appropriate assay-window was expanded, aliquoted and frozen.
An aliquot was thawed and plated in DPBS with 0.05% casein and 0.5 mM IBMX as 2000 cells/well in a 384-well format. The cells were then immediately stimulated for 30 min at room temperature with graded doses of test compound using human amylin (Bachem, cat no. H-7905) as a positive control. cAMP accumulation was measured using a Cisbio assay for Gs coupled receptors (cat. no. 62AM4PEC), where the assay reagents were added as per the manufacturer's instructions and time-resolved fluorescence energy transfer recorded after one hour.

Row | Compound | EC50 [nM]
1 | CC[C@H](C)[C@H](NC(=O)[C@H](CCC(N)=O)NC(=O)[C@H](Cc1c[nH]cn1)NC(=O)[C@H](C)NC(=O)[C@H](CC(C)C)NC(=O)[C@H](CCCNC(=N)N)NC(=O)[C@H](CCC(N)=O)NC(=O)[C@@H](NC(=O)[C@@H](NC(=O)[C@@H]1CSSC[C@H](NC(=O)CN)C(=O)N[C@@H](CCCNC(=N)N)C(=O)N[C@@H](Cc2ccccc2)C(=O)NCC(=O)N[C@@H]([C@@H](C)O)C(=O)N1)[C@@H](C)O)C(C)C)C(=O)N[C@@H](Cc1ccc(O)cc1)C(=O)N[C@@H](CCC(N)=O)C(=O)N[C@@H](Cc1ccccc1)C(=O)N[C@H](C(=O)N[C@@H](CC(=O)O)C(=O)N[C@@H](CCCCN)C(=O)N[C@@H](CC(=O)O)C(=O)N[C@@H](CCCCN)C(=O)N[C@@H](CC(=O)O)C(=O)N[C@@H](CC(N)=O)C(=O)N[C@H](C(=O)N[C@@H](C)C(=O)N1CCC[C@H]1C(=O)N[C@@H](CCCNC(=N)N)C(=O)N[C@@H](CO)C(=O)N[C@@H](CCCCN)C(=O)N[C@H](C(=O)N[C@@H](CO)C(=O)N1CCC[C@H]1C(=O)N[C@@H](CCC(N)=O)C(=O)NCC(=O)N[C@@H](Cc1ccc(O)cc1)C(N)=O)C(C)C)C(C)C)[C@@H](C)O [compound 174] (H-GCRFGTCTVQRLAHQIYQFTDKDKDNVAPRSKVSPQGY-NH2; disulfide 2-7; N-terminus assumed) | 0.071
2 | CC[C@H](C)[C@H](NC(=O)[C@H](CCC(N)=O)NC(=O)[C@H](Cc1c[nH]cn1)NC(=O)[C@H](C)NC(=O)[C@H](CC(C)C)NC(=O)[C@H](CCCNC(=N)N)NC(=O)[C@H](CCC(N)=O)NC(=O)[C@@H](NC(=O)[C@@H](NC(=O)[C@@H]1CSSC[C@H](NC(=O)[C@H](CCCCN)NC(=O)CC[C@H](NC(=O)CCCCCCCCCCCCCCCCCCC(=O)O)C(=O)O)C(=O)N[C@@H](CC(N)=O)C(=O)N[C@@H](Cc2ccccc2)C(=O)N[C@@H](C)C(=O)N[C@@H]([C@@H](C)O)C(=O)N1)[C@@H](C)O)C(C)C)C(=O)N[C@@H](Cc1ccc(O)cc1)C(=O)N[C@@H](CCC(N)=O)C(=O)N[C@@H](Cc1ccccc1)C(=O)N[C@H](C(=O)N[C@@H](CC(=O)O)C(=O)N[C@@H](CCCCN)C(=O)N[C@@H](CC(=O)O)C(=O)N[C@@H](CCCCN)C(=O)N[C@@H](CC(=O)O)C(=O)N[C@@H](CC(N)=O)C(=O)N[C@H](C(=O)N[C@@H](C)C(=O)N1CCC[C@H]1C(=O)N1CCC[C@H]1C(=O)N[C@H](C(=O)N[C@@H](CCC(=O)O)C(=O)N[C@H](C(=O)NCC(=O)N[C@@H](CO)C(=O)N[C@@H](CC(N)=O)C(=O)NCC(=O)N1C[C@H](O)C[C@H]1C(N)=O)C(C)C)[C@@H](C)O)C(C)C)[C@@H](C)O [compound 68] ({C20 diacid-γGlu}-KCNFATCTVQRLAHQIYQFTDKDKDNVAPPTEVGSNG[Hyp]-NH2; disulfide 2-7) | 0.013
3 | CC[C@H](C)[C@H](NC(=O)[C@H](CCC(N)=O)NC(=O)[C@H](CC(N)=O)NC(=O)[C@H](C)NC(=O)[C@H](CC(C)C)NC(=O)[C@H](CCCNC(=N)N)NC(=O)[C@H](CCC(N)=O)NC(=O)[C@@H](NC(=O)[C@@H](NC(=O)[C@@H]1CSSC[C@H](NC(=O)CNC(=O)CC[C@H](NC(=O)CCCCCCCCCCCCCCCCCCC(=O)O)C(=O)O)C(=O)N[C@@H](CCCNC(=N)N)C(=O)N[C@@H](Cc2ccccc2)C(=O)NCC(=O)N[C@@H]([C@@H](C)O)C(=O)N1)[C@@H](C)O)C(C)C)C(=O)N[C@@H](Cc1ccc(O)cc1)C(=O)N[C@@H](CCC(N)=O)C(=O)N[C@@H](Cc1ccccc1)C(=O)N[C@H](C(=O)N[C@@H](CC(=O)O)C(=O)N[C@@H](CCCCN)C(=O)N[C@@H](CC(=O)O)C(=O)N[C@@H](CCCCN)C(=O)N[C@@H](CC(=O)O)C(=O)N[C@@H](CC(N)=O)C(=O)N[C@H](C(=O)N[C@@H](C)C(=O)N1CCC[C@H]1C(=O)N[C@@H](CCCNC(=N)N)C(=O)N[C@H](C(=O)N[C@@H](CC(N)=O)C(=O)N[C@H](C(=O)NCC(=O)N1CCC[C@H]1C(=O)N[C@@H](CCC(N)=O)C(=O)NCC(=O)N[C@@H](Cc1ccc(O)cc1)C(N)=O)C(C)C)[C@@H](C)O)C(C)C)[C@@H](C)O [compound 372] ({C20 diacid-γGlu}-GCRFGTCTVQRLANQIYQFTDKDKDNVAPRTNVGPQGY-NH2; disulfide 2-7) | 0.02

The remaining lines, values ahead:

Row | EC50 [nM] | Compound
4 | 0.045 | CC[C@H](C)[C@H](NC(=O)[C@H](CCCCN)NC(=O)[C@H](CO)NC(=O)[C@H](CCCNC(=N)N)NC(=O)[C@@H]1CCCN1C(=O)[C@H](C)NC(=O)[C@@H](NC(=O)[C@H](CC(N)=O)NC(=O)[C@H](CC(=O)O)NC(=O)[C@H](CCCCN)NC(=O)[C@H](CC(=O)O)NC(=O)[C@H](CCCCN)NC(=O)[C@H](CC(=O)O)NC(=O)[C@@H](NC(=O)[C@H](Cc1ccccc1)NC(=O)[C@H](CCC(N)=O)NC(=O)[C@@H](NC(=O)[C@H](CC(C)C)NC(=O)[C@H](Cc1ccccc1)NC(=O)[C@H](CC(N)=O)NC(=O)[C@H](C)NC(=O)[C@H](CC(C)C)NC(=O)[C@H](CCCNC(=N)N)NC(=O)[C@H](CCC(N)=O)NC(=O)[C@@H](NC(=O)[C@H](C)NC(=O)[C@@H]1CSSC[C@H](NC(=O)[C@H](CCCCN)NC(=O)CC[C@H](NC(=O)CCCCCCCCCCCCCCCCCCC(=O)O)C(=O)O)C(=O)N[C@@H](CC(N)=O)C(=O)N[C@@H](Cc2ccccc2)C(=O)N[C@@H](C)C(=O)N[C@@H]([C@@H](C)O)C(=O)N1)[C@@H](C)O)C(C)C)[C@@H](C)O)C(C)C)C(=O)NCC(=O)N1CCC[C@H]1C(=O)N[C@@H](CCC(N)=O)C(=O)NCC(=O)N[C@@H](Cc1ccc(O)cc1)C(N)=O [compound 389] ({C20 diacid-γGlu}-KCNFATCATQRLANFLVQFTDKDKDNVAPRSKIGPQGY-NH2; disulfide 2-7)
5 | 0.039 | CC(C)C[C@H](NC(=O)[C@H](CCCNC(=N)N)NC(=O)[C@H](CCC(N)=O)NC(=O)[C@@H](NC(=O)[C@@H](NC(=O)[C@@H]1CSSC[C@H](NC(=O)CNC(=O)CC[C@H](NC(=O)CCCCCCCCCCCCCCCCCCC(=O)O)C(=O)O)C(=O)N[C@@H](CCCNC(=N)N)C(=O)N[C@@H](Cc2ccccc2)C(=O)NCC(=O)N[C@@H]([C@@H](C)O)C(=O)N1)[C@@H](C)O)C(C)C)C(=O)N[C@@H](C)C(=O)N[C@@H](CC(N)=O)C(=O)N[C@@H](Cc1ccccc1)C(=O)N[C@@H](CC(C)C)C(=O)N[C@@H](Cc1ccc(O)cc1)C(=O)N[C@@H](CCC(N)=O)C(=O)N[C@@H](Cc1ccccc1)C(=O)N[C@H](C(=O)N[C@@H](CC(=O)O)C(=O)N[C@@H](CCCCN)C(=O)N[C@@H](CC(=O)O)C(=O)N[C@@H](CCCCN)C(=O)N[C@@H](CC(=O)O)C(=O)N[C@@H](CC(N)=O)C(=O)N[C@H](C(=O)N[C@@H](C)C(=O)N1CCC[C@H]1C(=O)N[C@@H](CCCNC(=N)N)C(=O)N[C@H](C(=O)N[C@@H](CC(N)=O)C(=O)N[C@H](C(=O)NCC(=O)N1CCC[C@H]1C(=O)N[C@@H](CCC(N)=O)C(=O)NCC(=O)N[C@@H](Cc1ccc(O)cc1)C(N)=O)C(C)C)[C@@H](C)O)C(C)C)[C@@H](C)O [compound 386] ({C20 diacid-γGlu}-GCRFGTCTVQRLANFLYQFTDKDKDNVAPRTNVGPQGY-NH2; disulfide 2-7)
